# Assay results taken from patent US4395391A, “Unsymmetrically substituted dicarboxylic-acid-bis-(2,4,6-triiodo-anilides), their preparation, and x-ray contrast media containing same” (priority 1980, dated 1983).
# Legend:
# rat [1] = assay: ED50 rat, intracisternal; type: in vivo; details: 200-250 g rat, diluted with 3% mannite solution
# Method: (§1) least 4 doses were tested on 10 animals. The effectiveness criteria used
# (§2) are the states of excitation, grave behavioral anomalies, coma and death
# (§3) over the period of 24 h.
# (3) With the test equipment essentially the same ss in (2), 200-250 g rat
# are injected with contrast media in the cisterna suboccipitalis. The
# contrast media were diluted with a 3% mannite solution to adjust the […]
# rat [2] = assay: ED50 rat, pericerebrally (excitation, grave behavioral anomalies, coma and death over 24 h); type: in vivo; details: pericerebral (intracerebral) injection, 0.4 ml, rats about 100 g
# Method: (2) Male and female rats of about 100 g in weight were injected
# intracerebrally between the cheekbone and the occiputal bone through a
# natural bone hole of the cranium while being slightly anesthesized with
# ether. 0.4 ml injections of contrast media solutions of various
# concentrations were used according to the method of Valzelli. The
# injection was carried out with a Hamilton syringe 710 N for which the
# penetration depth is limited to 10 mm. Depending on the preparation, at
# as §1, §2, §3
# [3] = distribution coefficient butanol/water, pH 7.4; type: physicochemical; details: meglumine salts
# Excerpt: By providing the compounds of this invention wherein only one of the two 5,5',-position hydrogen atoms is substituted, new contrast-producing substances are obtained. […] This can be shown by comparing the values of protein binding, compatibility, biliary and renal excretion of the meglumine salts of the conventional agent iodipamide (B) and an agent of this invention, hexane-diacid-1-(3-carboxy-2,4,6-triiodo-anilide)-6-(3-carboxy-5-N-methyl- carbamoyl-2,4,6-triido-anilide) (A).
# rat [4] = assay: LD50, i.v., rat; type: in vivo; details: meglumine salt solutions 180 mg iodine per ml, 0.8 ml/minute
# Method: (1) The contrast media were injected in the form of meglumine salt
# solutions of 180 mg of iodine per ml at a rate of 0.8 ml/minute into male
# liver parenchyma [5] = details: cited from earlier work
# dog liver = assay: computer tomography: maximum enrichment of contrast medium in dog liver; type: in vivo, dog (beagle); details: 360 mg I/kg, intravenous, meglumine salt solutions 180 mg of I/ml, beagles
# Excerpt: The extraordinarily pronounced enrichment of the compounds of this invention is shown in Table 2 listing the maximal enrichment in the liver following intravenous administration of the meglumine salt solutions of the prior art iosefamic acid (D) and of a compound of this invention, 3-oxapentane-diacid-1-([…]-2,4,6-triiodo-N-methylanilide)-5-(3-carboxy-5-N-methylcarbamoyl-2,4,6-triiodo-anilide) (E).
# The values were obtained from healthy male and female beagles (Schering, breeder) with weights of 9-14 kg. The meglumine salt solutions contained 180 mg of I/ml.
# The investigation of the x-ray density of the liver before administration of the contrast media and every 5 minutes up to 90 minutes thereafter was carried out using a full-body scanner of the EMI CT 5005/12 type, which operates on the basis of the rotation-translation principle. The scanning time was 20 seconds, the tube voltage 120 kv. For an image matrix of 320×320 elements, the standard deviation from the mean value of a normalized water phantom was 1.6% (i.e., +/-8 EU=EMI units). The computer tomograms were analyzed always on the same liver area by means of the analyzer "IVC" of the EMI Co.
# liver parenchyma [6] = details: cited from earlier work; remark: listed apart in the source
SMILES,"rat, intracisternal ED50 (rat [1])","rat, pericerebrally ED50 (rat [2])","distribution coefficient, butanol/water, pH 7.4 [3]","LD50, i.v., rat (rat [4])","liver concentration for diagnosis improvement, humans (liver parenchyma [5])",Maximum enrichment in dog liver (dog liver),time of maximum enrichment in dog liver (min. p. appl.) (dog liver),"liver concentration for diagnosis improvement, dog (liver parenchyma [6])"
"O=C(CCCCC(=O)Nc1c(I)cc(I)c(C(=O)O)c1I)Nc1c(I)cc(I)c(C(=O)O)c1I [B, iodipamide]",1.07 (0.54-1.83) mg of I per kg,6.35 (5.11-7.44) mg of I/kg,0.278 +/- 0.008,2.6 g of I/kg,,,,
"CNC(=O)c1c(I)c(NC(=O)CCCCC(=O)Nc2c(I)cc(I)c(C(=O)O)c2I)c(I)c(C(=O)O)c1I [Compound A, Hexane-diacid-1-(3-carboxy-2,4,6-triiodo-anilide)-6-(3-carboxy-5-N-methylcarbamoyl-2,4,6-triiodo-anilide)]",15.6 (11.5-21.1) mg of I per kg,17.1 (11.8-23.6) mg of I/kg,0.083 +/- 0.001,5.5 g of I/kg,,,,
"CNC(=O)c1c(I)c(NC(=O)CCCCCCCCC(=O)Nc2c(I)c(C(=O)O)c(I)c(C(=O)NC)c2I)c(I)c(C(=O)O)c1I [D, iosefamic acid]",,,,,not in humans,22.8 EMI units,80 min. p. appl.,still adequate liver concentration for diagnosis improvement in the dog
"CNC(=O)c1c(I)c(NC(=O)COCC(=O)N(C)c2c(I)cc(I)c(C(=O)O)c2I)c(I)c(C(=O)O)c1I [E, 3-oxapentane-diacid-1-(3-carboxy-2,4,6-triiodo-N-methylanilide)-5-(3-carboxy-5-N-methylcarbamoyl-2,4,6-triiodo-anilide)]",,,,,,,90 min. p. appl.,
